Data reported in ChEMBL document CHEMBL3232872, “Cytotoxic constituents from Lobaria scrobiculata and a comparison of two bioassays for their evaluation” (J Nat Prod, 2014).
The source made the active and inactive calls. The calls are words filed in the database; no cut-off is given here.

Key:
HeLa [1] = assay: Cytotoxicity against human HeLa cells after 48 hrs by WST-1 assay; type: functional, cell-based
[2] = Drug degradation in methanol assessed as divaricatinic acid methyl ester formation after 72 hrs by LC-MS analysis; type: physicochemical
HeLa [3] = assay: Cytotoxicity against human HeLa cells after 24 hrs by WST-1 assay; type: functional, cell-based
[4] = Chemical stability of the compound in methanol measured at 48 hrs by LC-MS analysis; type: physicochemical; conditions: read-out: Stability
HL-60 [5] = assay: Cytotoxicity against human HL60 cells assessed as decrease in cell viability at 10 ug/mL measured over 72 hrs by trypan blue assay; type: functional, cell-based
[6] = Drug degradation in methanol assessed as 2,3,4 trihydroxy-6-propylbenzoic acid methyl ester formation after 72 hrs by LC-MS analysis; type: physicochemical
Vero [7] = assay: Cytotoxicity against African green monkey Vero cells after 48 hrs by Alamar Blue assay; type: cell-based; conditions: Chlorocebus sabaeus
[8] = Chemical stability of the compound in methanol measured immediately post compound addition by LC-MS analysis; type: physicochemical; conditions: read-out: Stability
Vero [9] = assay: Cytotoxicity against African green monkey Vero cells after 24 hrs by Alamar Blue assay; type: cell-based; conditions: Chlorocebus sabaeus
[10] = Chemical stability of the compound in methanol measured at 72 hrs by LC-MS analysis; type: physicochemical; conditions: read-out: Stability
HL-60 [11] = assay: Cytotoxicity against human HL60 cells assessed as metabolic activity at 10 ug/mL measured over 72 hrs by WST-1 assay; type: functional, cell-based
HL-60 [12] = assay: Cytotoxicity against human HL60 cells after 24 hrs by WST-1 assay; type: functional, cell-based; conditions: HL-60, 24 h
HL-60 [13] = assay: Cytotoxicity against human HL60 cells after 48 hrs by WST-1 assay; type: functional, cell-based; conditions: HL-60, 48 h
[14] = Chemical stability of the compound in methanol measured at 24 hrs by LC-MS analysis; type: physicochemical; conditions: read-out: Stability
HL-60 [15] = assay: Cytotoxicity against human HL60 cells assessed as metabolic activity at 50 ug/mL after 24 hrs by WST-1 assay; type: functional, cell-based
HL-60 [16] = assay: Cytotoxicity against human HL60 cells assessed as decrease in cell viability at 50 ug/mL after 24 hrs by trypan blue assay; type: functional, cell-based
HL-60 [17] = assay: Cytotoxicity against human HL60 cells after 72 hrs; type: functional, cell-based; conditions: HL-60, 72 h

Row | SMILES | IC50 (HeLa [1]) | Stability [2] | IC50 (HeLa [3]) | remaining at 48 h [4] | Activity (HL-60 [5]) | Stability [6] | IC50 (Vero [7]) | remaining at 0 h [8] | IC50 (Vero [9]) | remaining at 72 h [10] | Activity (HL-60 [11]) | IC50 (HL-60 [12]) | IC50 (HL-60 [13]) | remaining at 24 h [14] | Activity (HL-60 [15]) | Activity (HL-60 [16]) | IC50 (HL-60 [17])
1 | CCCc1cc(OC)cc(O)c1C(=O)Oc1c(O)cc(CCC)c(C(=O)OC)c1O | > 10 µM | Unstable | > 10 µM | 35.3% | Active | Unstable | > 150 µM | 99.8% | > 150 µM | 22.1% | Active | > 10 µM | 7.6 µM | 63.8% | – | – | –
2 | COc1cc(C)c2c(c1C=O)Oc1c(c(C)c(O)c3c1C(O)OC3=O)OC2=O (centres undefined) [STICTIC ACID] | > 10 µM | – | > 10 µM | 91.8% | – | – | > 150 µM | 89.7% | > 150 µM | 91.8% | – | > 10 µM | > 10 µM | 90.1% | inactive | Active | –
3 | CCCc1cc(O)cc(O)c1C(=O)OC | > 10 µM | – | > 10 µM | 99.9% | – | – | > 150 µM | 99.8% | > 150 µM | 99.9% | – | > 10 µM | > 10 µM | 99.9% | – | – | –
4 | CCCc1cc(O)c(O)c(O)c1C(=O)OC | > 10 µM | – | > 10 µM | 94.6% | – | – | > 150 µM | 97.8% | > 150 µM | 94.8% | – | > 10 µM | > 10 µM | 95% | – | – | –
5 | COc1cc(C)c2c(c1C=O)Oc1c(C=O)c(C(=O)O)c(O)c(C)c1OC2=O | > 10 µM | – | > 10 µM | 89.6% | – | – | > 150 µM | 94.1% | > 150 µM | 89.5% | – | > 10 µM | > 10 µM | 88.5% | inactive | Active | –
6 | CC(=O)C1=C(O)C=C2Oc3c(C(C)=O)c(O)c(C)c(O)c3[C@@]2(C)C1=O [(+)-USNIC ACID] | > 10 µM | – | > 10 µM | 99.9% | – | – | > 150 µM | 99.9% | > 150 µM | 99.9% | – | 5.4 µM | 1.7 µM | 99.9% | – | – | 48.5 µM
